According to EP0170258A2, “11-Substituted-16-phenoxy and 16-substituted phenoxy-prostatrienoic acid derivatives” (priority 1984, dated 1986):

Tests used:
[1] = test system: Normal White Albino New Zealand Rabbits; assay: Reduction of intraocular pressure (IOP), pneuma-tonometer; format: in vivo
Procedure: Two groups of normal albino white New Zealand rabbits were used for this study. Control group: 4 animals Experimental group: 8 animals At time 0, intraocular pressure of both eyes of each animal in control and experimental groups was determined. All animals received the treatment either with saline (control group) or the tested compound (experimental group) immediately after 0 hour intraocular pressure reading. Control group received 50 µl of vehicle in both eyes . Experimental animals received 50 µl of vehicle in the left eyes and 50 µl of the test solution in the right eyes. Intraocular pressure was measured at 30 minutes, 1, 2, and 4 hours. The effects of tested drug on intraocular pressure of the rabbit was determined using a Digilab Model 30D pneuma-tonometer. Initial IOP readings were obtained in all animals after the administration of 50 ul of 0.5% Opthaine (proparacaine hydrochloride). A group of 4 rabbits served as controls and were treated with 50 µl of saline in both eyes. Eight additional rabbits received 50 ul of test drug in the right eye, and 50 µl of drug vehicle was administered in the contralateral left eye. IOP readings were made 30 minutes, 1 hours, 2 hours, and 4 hours after drug administration. […] This procedure permitted the comparison of drug treated eye with the contralateral vehicle treated eye, and also with saline treated eye. For purposes of statistical analysis comparisons were made between the drug treated IOP values and vehicle treated-contralateral eyes and also the saline treated IOP values.

rabbits = assay: Toxicity by topical ocular application in rabbits; format: in vivo; conditions: up to 0.2 mg/ml, 0.1 ml/eye, from 12 times in 6 hours to up to 6 times/day for a week
Procedure: Studies were conducted by topical ocular application in rabbits with concentrations up to 0.2 mg/ml of methyl 9-oxo-lla-methyl-15a-hydroxy-16-phenoxy-17,18,19,20-tetranorprosta-4,5,13(E)-trienoate. The dose volume was 0.1 ml/eye. Duration of administration varied from 12 times in 6 hours to up to 6 times/day for a week.

Monkeys = assay: Toxicity by topical ocular application in monkeys; format: in vivo; conditions: same concentrations and dosages, once a day for one week
Procedure: Monkeys were treated similarly with the same concentrations and dosages of methyl 9-oxo-lla- methyl-15a-hydroxy-16-phenoxy-17,18,19,20-tetranorprosta-4,5,13(E)-trienoate once a day for one week.

[2] = test system: Normal White Albino New Zealand Rabbits; assay: Reduction of intraocular pressure (IOP), pneuma-tonometer; conditions: rabbit, in vivo

CCCCC[C@H](O)/C=C/[C@H]1[C@H](O)CC(=O)[C@@H]1C/C=C\CCCC(=O)O [PGE2] was tested, and the Intraocular pressure ([1]; PGE2 0.025%, 0 hr (reading before treatment)) was 21.00 ± .85 mmHg, the Intraocular pressure ([1]; PGE2 0.025%, 1/2 hr) was 47.63 ± 1.28 mmHg and the Intraocular pressure ([1]; PGE2 0.025%, 2.5 hr) was 18.38 ± .82 mmHg. The Intraocular pressure ([1]; PGE2 0.025%, 4 hr) was 16.00 ± .73 mmHg, the Intraocular pressure ([1]; PGE2 0.025%, 5 hr) was 16.63 ± .38 mmHg and the eye irritation ([1]; observed on administration, for PGE1 and PGE2 even at low doses) was “severe eye irritation”. The “transient increase in intraocular pressure at the time of administration” value ([1]; when first administered) was “transitory rise in intraocular pressure”.

COC(=O)CCC=C=CC[C@H]1C(=O)C[C@@H](C)[C@@H]1/C=C/[C@@H](O)COc1ccccc1 [Compound 1, methyl 9-oxo-11α-methyl-15α-hydroxy-16-phenoxy-17,18,19,20-tetranorprosta-4,5,13(E)-trienoate] was tested, and the ocular toxicity (rabbits) was “No ocular toxicity occurred”, the “intraocular pressure (effect in words)” value ([1]; 0.01% solution, right (treated) eyes of the experimental group) was “decreased significantly” and the Intraocular pressure ([1]; Compound 1 0.02%, 0 hr (reading before treatment)) was 21.63 ± .71 mmHg. For the same compound, the Intraocular pressure ([1]; Compound 1 0.02%, 1/2 hr) was 18.13 ± .44 mmHg, the Intraocular pressure ([1]; Compound 1 0.02%, 1 hr) was 17.25 ± .59 mmHg and the Intraocular pressure ([1]; Compound 1 0.02%, 2 hr) was 16.63 ± .78 mmHg. For the same compound, the Intraocular pressure ([1]; Compound 1 0.02%, 4 hr) was 18.75 ± .68 mmHg, the Intraocular pressure ([1]; Compound 1 0.2%, 0 hr (reading before treatment)) was 23.75 ± .53 mmHg and the Intraocular pressure ([1]; Compound 1 0.2%, 1/2 hr) was 19.25 ± .49 mmHg. The Intraocular pressure ([1]; Compound 1 0.2%, 1 hr) was 18.88 ± .64 mmHg, the Intraocular pressure ([1]; Compound 1 0.2%, 2 hr) was 18.75 ± .45 mmHg and the Intraocular pressure ([1]; Compound 1 0.2%, 4 hr) was 19.88 ± .35 mmHg. For the same compound, the ocular toxicity (Monkeys) was “No ocular toxicity occurred”.

With CCCCC[C@H](O)/C=C/[C@H]1[C@H](O)CC(=O)[C@@H]1CCCCCCC(=O)O [PGE1] the eye irritation [2] was “severe eye irritation”, the Intraocular pressure ([1]; PGE1 0.01%, 0 hr (reading before treatment)) was 20.67 ± 1.09 mmHg and the Intraocular pressure ([1]; PGE1 0.01%, 1/2 hr) was 38.17 ± 1.28 mmHg. For the same compound, the Intraocular pressure ([1]; PGE1 0.01%, 1 hr) was 31.17 ± .91 mmHg, the Intraocular pressure ([1]; PGE1 0.01%, 2 hr) was 15.33 ± .56 mmHg and the Intraocular pressure ([1]; PGE1 0.01%, 4 hr) was 16.33 ± 1.17 mmHg. For the same compound, the Intraocular pressure ([1]; PGE1 0.01%, 6 hr) was 19.00 ± 1.03 mmHg and the “transient increase in intraocular pressure at the time of administration” value ([1]; rabbit, in vivo) was “transitory rise in intraocular pressure”.
